Columns and labels:
Type in all cases: functional
[1] = Antitumor activity was assessed against TLX5 tumors in CBA/CA mouse by inoculation of 2 x 10e5 tumor cells through subcutaneous route and mean death of animals (treated/control) was reported at 160 mg/kg iv dose
[2] = Antitumor activity was assessed against TLX5 tumors in CBA/CA mouse by inoculation of 2 x 10e5 tumor cells through subcutaneous route and mean death of animals (treated/control) was reported at 80 mg/kg iv dose
L1210 [3] = assay: Antitumor activity was assessed against L1210 tumors in B6D2F1 mouse by inoculation of 10e5 tumor cells through intraperitoneal route and mean death of animals (treated/control) was reported at 200 mg/kg peroral dose; settings: route oral
L1210 [4] = assay: Antitumor activity was assessed against L1210 tumors in B6D2F1 mouse by inoculation of 10e5 tumor cells through intraperitoneal route and mean death of animals (treated/control) was reported at 50 mg/kg peroral dose; settings: route oral
[5] = Antitumor activity was assessed against TLX5 tumors in CBA/CA mouse by inoculation of 2 x 10e5 tumor cells through subcutaneous route and mean death of animals (treated/control) was reported at 40 mg/kg iv dose
[6] = Antitumor activity was assessed against TLX5 tumors in CBA/CA mouse by inoculation of 2 x 10e5 tumor cells through subcutaneous route and mean death of animals (treated/control) was reported at 320 mg/kg iv dose
[7] = Antitumor activity was assessed against TLX5 tumors in CBA/CA mouse by inoculation of 2 x 10e5 tumor cells through sc route and number of Survivors to duration was reported at 320 mg/kg iv dose; 1/5
[8] = Antitumor activity was assessed against TLX5 tumors in CBA/CA mouse by inoculation of 2 x 10e5 tumor cells through subcutaneous route and mean death of animals (treated/control) was reported at 640 mg/kg iv dose
L1210 [9] = assay: Antitumor activity was assessed against L1210 tumors in B6D2F1 mouse by inoculation of 10e5 tumor cells through intraperitoneal route and mean death of animals (treated/control) was reported at 100 mg/kg peroral dose; settings: route oral

`O=C(c1ncn2c(=O)n(CCCl)nnc12)N1CCCCC1` gave a T/C [1] of 120%, a T/C [2] of 102% and a T/C (L1210 [3]) of 171%. The T/C (L1210 [4]) was 100%, the T/C [5] was 98% and the T/C [6] was greater than 234%. The Survivors [7] was 1, the T/C [8] was 25% and the T/C (L1210 [9]) was 108%.
